# Experimental data published in patent US9585875B2, “TRPM8 antagonists” (Dompé S.P.A., priority 2011, dated 2017).
# Legend:
# Plasma stability [1] = format: in vitro ADME; details: human
# Plasma stability [2] = format: in vitro ADME; details: rat
# CYP 2D6 = CYP 2D6 (Homo sapiens, UniProt P10635); test: CYP inhibition; format: in vitro ADME
# TRPM8 = TRPM8 (Homo sapiens, UniProt Q7Z2W7); test: HTS cell-based Ca2+ mobilization assay (FLIPR TETRA) in HEK293/hTRPM8 cells, agonist Cooling Agent 10; design: expressed in transfected cells; details: HEK293/hTRPM8, Cooling Agent 10 at EC80
# TRPM8, sequence (Q7Z2W7 whole entry): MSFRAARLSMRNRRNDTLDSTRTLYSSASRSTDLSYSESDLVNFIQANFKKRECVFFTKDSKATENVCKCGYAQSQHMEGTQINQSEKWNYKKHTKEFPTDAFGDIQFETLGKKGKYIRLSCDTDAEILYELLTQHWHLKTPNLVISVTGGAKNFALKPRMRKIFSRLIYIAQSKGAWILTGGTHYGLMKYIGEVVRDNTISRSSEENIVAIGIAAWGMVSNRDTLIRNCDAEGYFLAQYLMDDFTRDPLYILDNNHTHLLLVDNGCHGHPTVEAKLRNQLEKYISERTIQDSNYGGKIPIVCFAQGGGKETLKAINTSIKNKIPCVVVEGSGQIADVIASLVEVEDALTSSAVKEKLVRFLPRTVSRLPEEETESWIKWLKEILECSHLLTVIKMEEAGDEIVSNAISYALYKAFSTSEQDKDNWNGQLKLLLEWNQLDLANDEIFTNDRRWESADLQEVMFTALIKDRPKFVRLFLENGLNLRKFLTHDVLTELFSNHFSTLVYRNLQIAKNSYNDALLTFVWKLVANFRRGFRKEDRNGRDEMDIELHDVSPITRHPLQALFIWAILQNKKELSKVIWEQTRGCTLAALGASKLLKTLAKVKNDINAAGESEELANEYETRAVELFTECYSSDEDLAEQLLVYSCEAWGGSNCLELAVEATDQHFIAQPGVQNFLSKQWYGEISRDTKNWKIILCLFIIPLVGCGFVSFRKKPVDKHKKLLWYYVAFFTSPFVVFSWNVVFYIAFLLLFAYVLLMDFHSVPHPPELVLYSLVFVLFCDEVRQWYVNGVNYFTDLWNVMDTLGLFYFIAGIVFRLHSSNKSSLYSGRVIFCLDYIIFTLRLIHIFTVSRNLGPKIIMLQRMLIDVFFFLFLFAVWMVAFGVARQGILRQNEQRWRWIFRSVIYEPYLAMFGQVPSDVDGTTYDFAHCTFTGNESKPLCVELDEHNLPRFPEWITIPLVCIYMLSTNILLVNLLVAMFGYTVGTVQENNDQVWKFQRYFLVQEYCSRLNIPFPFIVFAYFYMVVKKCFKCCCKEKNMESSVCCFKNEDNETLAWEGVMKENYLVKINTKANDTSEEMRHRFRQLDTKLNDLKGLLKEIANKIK
# Excerpt: A functional cell-based assay for the identification of TRPM8 receptor antagonists, optimised to allow high throughput screening at FLIPR^TETRA, was developed in HEK293 cells by stable pure clone selection and functional characterization with a fluorescent calcium sensitive dye.
# TRPM8 was cloned into the multiple cloning site of pcDNA3 mammalian expression vector; the obtained construct pcDNA3/hTRPM8 was fully sequence verified and used for the transfection of HEK293 cell line. HEK293 cells stably transfected with TRPM8 gene were maintained in Minimum essential medium. The cells were transfected with the pcDNA3/hTRPM8 vector by electroporation and then selected with medium containing 0.8 mg/ml G418 for 10-15 days.
# The following commercial compounds were used as ligands:
# Activator: Cooling Agent 10 (Takasago CAS N. 87061-04-9)
# Blocker: Capsazepine (SIGMA cat #D_5879)
# The experimental activities were performed using FLIPR^TETRA instruments.
# HEK293 cells stably transfected with TRPM8 gene were maintained in Minimum essential medium.
# The TRPM8 cell line was analysed for the response to a library of compounds using a Ca^2+ mobilization-dependent fluorescence signal in 384 wells microtiter plate format. The analysis was performed using the FLIPR^TETRA (MDC) with the ICCD Camera.
# The execution of the assay involved the use of three microtiter plates:
# 1. Assay plate, containing cells loaded with dye and prepared as follows:
# Cells were seeded at 15000 c/well in Poly-D-Lysine coated 384 wells Microtiter Plates in complete medium (25 μl/well).
# 24 h after seeding, the cell plates were washed with Tyrode assay buffer by the Microplate Washer and 10 μL of Tyrode assay buffer was left in each well.
# Cells were then loaded with 10 μL/well of the Fluo-4 NW dye solution by CyBi®-Well pipettor. Each bottle of Fluo4-NW dye (Molecular Probes cat. #F36206, component A) was re-suspended in 8 mL of Tyrode assay buffer and supplemented with 100 μL of water-soluble probenecid (MolecularProbes cat.#F36206, component B).
# Dye loaded cell plates were incubated for 1 h at room temperature.
# 2. Compound Dilution Plate (FIG. 1), containing diluted test compounds, formulated as follows: […]
# Column 1: wells containing Assay Buffer plus DMSO 0.5% final
# Columns 3-22: wells containing Assay Buffer plus 0.5% DMSO final. To these wells the compounds to be tested were added at 3× concentration.
# Column 23: alternating wells of Max Signal Control in second injection (Assay buffer) and Min Signal Control in second injection (Antagonist Capsazepine IC100, 50 μM) in Assay buffer plus 0.5% DMSO final;
# Column 24: wells containing Capsazepine (Antagonist) at 8 concentrations in duplicate at final concentrations of 50 μM, 25 μM, 6.25 μM, 3.15 μM, 1.56 μM, 780 nM, […] in Assay buffer plus 0.5% DMSO final.
# 3. Activator Plate (FIG. 2), containing agonist Cooling Agent 10 at EC80, formulated as follows:
# Column 1: Cooling Agent 10 (Agonist) at 8 concentrations dose response in duplicate at final concentrations of 100 μM, 31.6 μM, 10 μM, 3.16 μM, 1 μM, 316 nM, 100 nM, 31.6 nM in Assay buffer;
# Columns 2-24: Cooling Agent 10 (Agonist) at EC80 (3 fold concentrated, 20 μM final) in Assay buffer.
# The test was carried out according to a procedure comprising the following steps:
# 1. The samples contained in the wells of the Compound Plate were added to the corresponding wells of the Assay Plate by the FLIPR^TETRA, thus resulting in the addition in Columns 3-22 of the test compounds at 3× concentration to the cells of the assay plates. No mixing was performed in the assay wells and the signal of the emitted fluorescence was recorded for 300 seconds. 2. The samples contained in the wells of the Activator Plate were added to the corresponding wells of the Assay Plate by the FLIPR^TETRA, thus resulting in the addition in Columns 3-22 of the Assay Plate of the agonist compound in addition to the test compounds. The signal of the emitted fluorescence was recorded for 180 seconds.
# TRPV1 = TRPV1 (Homo sapiens, UniProt Q8NER1); test: Calcium influx counterassay, agonist capsaicin; format: cell-based; details: 0.1 μM capsaicin = 100%, read-out: Normalized % inhibition (TRPV1); for inhibition at 1 µM: Test Conc. 1 uM; for inhibition at 10 µM: Test Conc. 10 uM
# TRPV1, sequence (Q8NER1 whole entry, species assumed): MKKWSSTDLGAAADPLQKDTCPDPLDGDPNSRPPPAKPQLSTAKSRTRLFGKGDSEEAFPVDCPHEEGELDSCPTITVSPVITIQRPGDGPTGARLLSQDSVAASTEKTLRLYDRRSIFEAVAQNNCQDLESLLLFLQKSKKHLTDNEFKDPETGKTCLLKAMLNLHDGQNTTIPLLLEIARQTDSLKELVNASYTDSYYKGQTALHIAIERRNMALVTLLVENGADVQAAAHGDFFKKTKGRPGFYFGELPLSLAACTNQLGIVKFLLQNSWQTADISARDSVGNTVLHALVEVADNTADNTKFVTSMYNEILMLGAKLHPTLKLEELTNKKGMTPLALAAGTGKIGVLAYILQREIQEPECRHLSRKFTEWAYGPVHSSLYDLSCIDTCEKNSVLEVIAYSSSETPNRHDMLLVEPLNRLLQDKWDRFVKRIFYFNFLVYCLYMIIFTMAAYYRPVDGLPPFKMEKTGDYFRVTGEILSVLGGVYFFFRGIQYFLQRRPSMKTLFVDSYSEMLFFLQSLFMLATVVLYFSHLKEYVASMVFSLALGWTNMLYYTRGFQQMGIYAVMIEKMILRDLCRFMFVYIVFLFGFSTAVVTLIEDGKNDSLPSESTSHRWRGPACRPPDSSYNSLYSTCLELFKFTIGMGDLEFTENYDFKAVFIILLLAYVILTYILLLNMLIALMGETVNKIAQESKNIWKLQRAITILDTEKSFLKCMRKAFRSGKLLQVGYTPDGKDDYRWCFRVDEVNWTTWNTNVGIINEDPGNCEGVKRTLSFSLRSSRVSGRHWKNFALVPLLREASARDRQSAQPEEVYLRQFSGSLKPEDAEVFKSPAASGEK
# Experimental: In order to address more specifically the potential selectivity issues, a counterassay was carried out for 10, 45 and 118 against TRPV1 and TRPV4 ion channels, both involved in the nociception (Jhaveri M D, et al 2005. Eur. J. Neurosci. 22 (2): 361-70, Brierley S M et al, 2008, Gastroenterology. 2008 June; 134(7):2059-69. ). The ability of each test compound to act as an antagonist of TRPV1 was evaluated with a calcium influx assay.
# Plasma Protein Binding [3] = format: in vitro ADME; details: human
# Plasma Protein Binding [4] = format: in vitro ADME; details: rat
# Female rats = test: Isovolumetric bladder model; format: in vivo, rat
# Experimental: Female rats were anesthetized with urethane. Ureters were ligated and sectioned. A catheter was inserted through the urinary meatus into the bladder before urethral ligature. […] 10 or 45 or with 100 μL of vehicle, then with 100 μL of saline every 5 min until the occurrence of rhythmic bladder contraction (RBC). A maximal volume of 3 mL was infused. The intravesical pressure was followed during 1 h30 after RBC appearance. For each group, Threshold Volume (TV), Micturition Frequency (MF) and Amplitude of Micturition (AM) were measured during the whole period. […] No effect on the total MF (measured during 90 min) was observed.
# Microsome stability [5] = format: in vitro ADME; details: rat
# Microsome stability [6] = format: in vitro ADME; details: human
# [7] = intravesical, 3 times 100 μL containing 0.1 mg
# CYP 2D6, sequence (P10635 whole entry): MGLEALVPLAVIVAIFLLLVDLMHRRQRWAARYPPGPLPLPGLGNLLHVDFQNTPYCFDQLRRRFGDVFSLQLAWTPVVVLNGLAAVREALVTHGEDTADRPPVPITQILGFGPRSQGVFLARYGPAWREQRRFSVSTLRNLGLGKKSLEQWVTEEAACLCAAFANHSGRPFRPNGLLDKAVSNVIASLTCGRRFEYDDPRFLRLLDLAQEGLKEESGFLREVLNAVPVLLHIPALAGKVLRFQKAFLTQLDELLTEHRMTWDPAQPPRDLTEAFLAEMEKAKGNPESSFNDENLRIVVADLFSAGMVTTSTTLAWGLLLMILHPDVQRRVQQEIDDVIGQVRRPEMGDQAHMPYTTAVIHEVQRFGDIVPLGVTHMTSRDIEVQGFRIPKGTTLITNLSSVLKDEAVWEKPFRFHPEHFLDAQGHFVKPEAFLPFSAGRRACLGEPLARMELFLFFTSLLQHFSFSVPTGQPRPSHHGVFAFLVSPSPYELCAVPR
Plasma stability (% remaining) @10 μM (Plasma stability [1]),Plasma stability (% remaining) @10 μM (Plasma stability [2]),"CYP (% inhibition) @10 μM, 2D6 (CYP 2D6)",IC50 (TRPM8),inhibition at 1 µM (TRPV1),inhibition at 10 µM (TRPV1),fraction unbound at 10 μM (Plasma Protein Binding [3]),fraction unbound at 10 μM (Plasma Protein Binding [4]),Microsome stability (% remaining) @1 μM (Microsome stability [5]),Microsome stability (% remaining) @1 μM (Microsome stability [6]),Compound,"reduction of Micturition Frequency (MF) (Female rats; 10 mg/kg i.v., first 30 min of the experiment)","continuous rhythmic bladder contraction (RBC) induced by filling with saline (Female rats; intravesical route, 2.3 mg/rat)",Amplitude of Micturition (AM) (Female rats; [7]),Threshold Volume (TV) (Female rats; [7]),"effect on the total Micturition Frequency (MF) (Female rats; intravesical, 3 times 100 μL containing 0.1 mg, measured during 90 min)"
1%,9%,<5%,0.2 nM,3.1%,6.3%,0.01,0.01,–,–,"O=C(O)c1sc(-c2ccc(Cl)cc2)nc1OCc1ccc(Cl)cc1 [Compound 45, 4-[(4-chlorobenzyl)oxy]-2-(4-chlorophenyl)-1,3-thiazole-5-carboxylic acid]",–,–,–,–,–
–,–,<5%,1000 nM,1.2%,2.3%,0.03,0.02,4%,5%,"CCOC(=O)c1sc(-c2cccc(F)c2)nc1O [Compound 10, ethyl 2-(3-fluorophenyl)-4-hydroxy-1,3-thiazole-5-carboxylate]",about 36%,completely abolished,did not change,1.5 mL,No effect
